These results are taken from PMC3480348, “Structure and Activity Analysis of Inauhzin Analogs as Novel Antitumor Compounds That Induce p53 and Inhibit Cell Growth” (PLoS ONE, 2012).

“And” between values parts separate entries of the source, which are not always exact repeats. Equal entries are not always repeated. “Also recorded” adds a separate entry of the source. Where two headings read alike, the source gives them in different places. Bounds are passed on as bounds.

Series [1] relates to p53 level in H460 cells. As to the kind of experiment: p53 induction by immunoblotting (IB) in H460 cells. It is filed as cell-based, human. Conditions: for p53 induction in H460 cells: 2 µM, 18 hrs, IB normalized to GAPDH, compared to 2 µM INZ. Background: A western blot detects proteins with antibodies after separation by electrophoresis.
For series [2], the system named is p53 level in H460 and HCT116^+/+ cells. As to the kind of experiment: p53 induction by immunoblotting (IB), statement does not separate the cell lines. It is filed as cell-based, human. As to conditions: 18 hrs, 0.5, 2, 10 µM. From the text: (A–B) Initial Inauhzin analogs were purchased and tested the activity on H460 and HCT116^+/+ by immunoblotting (IB). […]

Series [3] concerns p53 level in HCT116^+/+ cells. As to the kind of experiment: p53 induction by immunoblotting (IB) in HCT116^+/+ cells. Type of series: cell-based, human. As to conditions: for p53 induction in HCT116^+/+ cells: 2 µM, 18 hrs, IB normalized to GAPDH, compared to 2 µM INZ. The protocol:
(§1) EC90 values were calculated from the EC50 and Hill slope by a web-based calculator: http://www.graphpad.com/quickcalcs/Ecanything1.cfm.

In series [4] the test system is H460 cells. As to the kind of experiment: 3-day WST-8 cell growth inhibition assay, H460. Type of series: cell-based, human. Conditions: for EC50: Homo sapiens, NCI-H460, 72 h WST-8, average of triplicates, highest concentration 50 µM, read-out: EC50, cell growth inhibition, H460 p53 wild type.
Series [5] concerns HCT116^+/+ cells. As to the kind of experiment: 3-day WST-8 cell growth inhibition assay, HCT116^+/+. It is filed as cell-based, human. Conditions: for EC90: read-out: EC90, cell growth inhibition, HCT116^+/+ p53 wild type; for EC50: HCT-116, 72 h WST-8, average of triplicates, highest concentration 50 µM, read-out: EC50, cell growth inhibition, HCT116^+/+ p53 wild type. The protocol: as §1
In general terms: Tetrazolium assays rely on reduction of a dye to a coloured formazan, in cell work by metabolically active cells.

Series [6] concerns H460 cells. As to the kind of experiment: 3-day WST-8 cell growth inhibition assay, H460. It is filed as cell-based, human. Conditions: for EC90: read-out: EC90, cell growth inhibition, H460 p53 wild type. The protocol:
as §1

In series [7] the test system is HCT116^−/− cells. As to the kind of experiment: 3-day WST-8 cell growth inhibition assay, HCT116^−/− (p53 null). Type of series: cell-based. Conditions: Homo sapiens, HCT-116, calculated from EC50 and Hill slope. The protocol:
as §1

Series [8] deals with H1299 cells. As to the kind of experiment: 3-day WST-8 cell growth inhibition assay, H1299 (p53 null). It is filed as cell-based, human. Conditions: for EC90 / EC50: Homo sapiens; for EC90: NCI-H1299, calculated from EC50 and Hill slope; for EC50: NCI-H1299, 72 h WST-8, average of triplicates, highest concentration 100 µM; for effect on p53-null H1299 cells compared with p53-containing cells: in vitro cytotoxicity. As to the method: as §1

Series [9] deals with HCT116^−/− cells. As to the kind of experiment: 3-day WST-8 cell growth inhibition assay, HCT116^−/− (p53 null). Type of series: cell-based, human. Conditions: for EC50: Homo sapiens, HCT-116, 72 h WST-8, average of triplicates, highest concentration 100 µM; for effect on p53-null HCT116^−/− cells compared with p53-containing cells: in vitro cytotoxicity.
In series [10] the test system is WI-38 cells. As to the kind of experiment: WST-8 cytotoxicity assay on normal fibroblasts WI-38. It is filed as cell-based, human. As to the method: as §1
Where [11] appears, read: Homo sapiens, HCT-116, calculated from EC50 and Hill slope.
Setting [12] is: Homo sapiens, NCI-H460, calculated from EC50 and Hill slope (GraphPad web calculator).

With `CCC(Sc1nnc2c(n1)[nH]c1ccccc12)C(=O)N1c2ccccc2Sc2ccc(Cl)cc21` (stereo not drawn) [Compound 6, 2-((5H-[1,2,4]triazino[5,6-b]indol-3-yl)thio)-1-(2-chloro-10H-phenothiazin-10-yl)butan-1-one], the “p53 induction in H460 cells” value in [1] is less than 50%. In addition, the “p53 induction / activation by synthetic analogs” value in series [2] is recorded as “remained active in p53 induction”. The “p53 induction in HCT116^+/+ cells” value in [3] is less than 50%.
Take `CCC(Sc1nnc2c(n1)[nH]c1ccccc12)C(=O)N1c2ccccc2Sc2ccc(OC)cc21` (stereo not drawn) [Compound 7, 2-((5H-[1,2,4]triazino[5,6-b]indol-3-yl)thio)-1-(2-methoxy-10H-phenothiazin-10-yl)butan-1-one]: in series [1], the “p53 induction in H460 cells” value was less than 50%. In addition, the “p53 induction / activation by synthetic analogs” value in [2] was “remained active in p53 induction”. For the same compound, the “p53 induction in HCT116^+/+ cells” value in series [3] is recorded as less than 50%.
In the case of `CCC(Sc1nnc2c3ccccc3n(C(=O)CCCCC3CC4NC(=O)NC4S3)c2n1)C(=O)N1c2ccccc2Sc2ccccc21` (stereo not drawn) [Compound 20, 5-(5-oxo-5-(3-((1-oxo-1-(10H-phenothiazin-10-yl)butan-2-yl)thio)-5H-[1,2,4]triazino[5,6-b]indol-5-yl)pentyl)tetrahydro-1H-thieno[2,3-d]imidazole-2(5H)-one], the EC50 in [4] was found to be 2.9 ± 0.2 µM; in series [5] (Homo sapiens), 2.5 ± 0.6 µM. Further, the “p53 induction / activation in H460 cells” value in series [1] (IB, 18 hrs, 0.5, 2, 10 µM) is “as effective as INZ”. In addition, the results for the EC90 in series [5] (setting [11]) and in series [6] (setting [12]) were 18.3 µM and 7.5 µM, respectively. The “p53 induction / activation in HCT116^+/+ cells” value in series [3] (IB, 18 hrs, 0.5, 2, 10 µM, p53 acetylation (lys382), p53 level, MDM2) is reported as “as effective as INZ”.
Take `CCC(Sc1nnc2c(n1)[nH]c1cc(C)ccc12)C(=O)N1c2ccccc2Sc2ccccc21` (stereo not drawn) [Compound 19, 2-((7-methyl-5H-[1,2,4]triazino[5,6-b]indol-3-yl)thio)-1-(10H-phenothiazin-10-yl)butan-1-one]: the EC90 in series [7] is greater than 1000 µM; in series [8], 173 µM; in [5] (setting [11]), 29.7 µM; in series [5] (calculated from EC50 and Hill slope), 20 to 30 µM; in series [6] (setting [12]), 26.5 µM; in series [6] (calculated from EC50 and Hill slope (GraphPad web calculator)) it was 20 to 30 µM. Moreover, the EC50 amounted to 6 ± 0.6 µM in [4], 40.2 ± 7.4 µM in [8], 2.2 ± 0.2 µM in series [5] (Homo sapiens) and 44.2 ± 10.3 µM in series [9]. In addition, the “effect on p53-null H1299 cells compared with p53-containing cells” value in series [8] is recorded as “much less effective”. The “EC90 fold lower than that for INZ, H460” value in [6] (statement covers H460 and HCT116^+/+ together) is on record as 1.5 fold. Moreover, the “effect on p53-null HCT116^−/− cells compared with p53-containing cells” value in [9] was “much less effective”. Further, the “p53 induction / activation by synthetic analogs” value in series [2] is “significant effect on p53 induction compared to INZ at 0.5 µM”.
For the compound `CCC(Sc1nnc2c3ccccc3n(CCO)c2n1)C(=O)N1c2ccccc2Cc2ccccc21` (stereo not drawn) [Compound 37, 1-(acridin-10(9H)-yl)-2-((5-(2-hydroxyethyl)-5H-[1,2,4]triazino[5,6-b]indol-3-yl)thio)butan-1-one], the EC90 in series [7] is 91.7 µM; in series [8], 58.9 µM; in series [5] (setting [11]) it was 5 µM; in series [6] (setting [12]), 3.6 µM. In [4] (EC50 compared with INZ), the “fold higher potency than INZ in growth inhibition of H460 cells” value is 10 fold and 5- to 10 fold. Also, the EC50 is 0.7 µM in [4]; 11.2 µM in [8]; greater than 50 µM in [10] (Homo sapiens, WI-38, highest concentration tested 50 µM, n.d. = not be able to be determined, read-out: EC50, normal cells WI-38 p53 wild type); 0.5 µM in [5] (Homo sapiens); 12.8 ± 1.7 µM in series [9]. Besides, in series [8], the “effect on p53-null H1299 cells compared with p53-containing cells” value is “much less effect; also recorded: much less effective”. In series [8] (p53-null H1299 vs p53-containing H460), the “EC50 on H1299 fold higher than on H460 cells” value is listed as 3–15 fold. In addition, the “toxicity to normal human WI-38 cells” value in [10] (normal human fibroblasts, p53-containing) is recorded as “no toxicity”. The “fold higher potency than INZ in growth inhibition of HCT116^+/+ cells” value in series [5] (EC50 compared with INZ) was 5 fold and 5- to 10 fold. Besides, in series [9], the “effect on p53-null HCT116^−/− cells compared with p53-containing cells” value was “much less effect; also recorded: much less effective”. Also, in series [2], the “p53 induction / activation by synthetic analogs” value is “much better potency than INZ; also recorded: more potent in p53 activation than their parental compound INZ”.
